Test results published in article PMC7321065, “Discovery of New Schiff Bases Tethered Pyrazole Moiety: Design, Synthesis, Biological Evaluation, and Molecular Docking Study as Dual Targeting DHFR/DNA Gyrase Inhibitors with Immunomodulatory Activity” (Molecules, 2020).
Converted amounts (≈) assume the structure as drawn.

How the values were obtained:
Format in all cases: cell-based
[1] = tested on: S. aureus ATCC 33591; assay: Inhibition zone against MDRB, agar plate diffusion
[2] = tested on: E. coli ATCC BAA-196; assay: MIC/MBC against MDRB, paper disk diffusion; details: Escherichia coli, ATCCBAA196, E. coli ATCC BAA-196; for MBC: read-out: MBC; for MIC: read-out: MIC
Method in brief: (§1)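 Inhibition zones (mm±SD) were measured by agar plate diffusion against multidrug-resistant bacteria. MIC and MBC (µg/ml) were determined by paper disk diffusion.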

[3] = tested on: P. aeruginosa ATCC BAA-2111; assay: MIC/MBC against MDRB, paper disk diffusion; details: Pseudomonas aeruginosa, ATCCBAA2111, P. aeruginosa ATCC BAA-2111; for MBC: read-out: MBC; for MIC: read-out: MIC
Method in brief: as §1

[4] = tested on: S. aureus ATCC 43300 (MRSA); assay: MIC/MBC against MDRB, paper disk diffusion; details: Staphylococcus aureus, S. aureus ATCC 43300; for MBC: read-out: MBC; for MIC: read-out: MIC
Method in brief: as §1

[5] = tested on: P. aeruginosa ATCC BAA-2111; assay: Inhibition zone against MDRB, agar plate diffusion
[6] = tested on: Fusarium oxysporum; assay: Inhibition zone, agar plate diffusion; details: Fo, mm ± standard deviation, sample at 0.5 mg/mL, read-out: Inhibition zone (IZ)
Method in brief: (§2)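 Compounds in DMSO, with DMSO as negative control, were tested at 0.5 mg/mL in agar wells cut 10 mm wide.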

[7] = tested on: Staphylococcus aureus; assay: Inhibition zone, agar plate diffusion; details: Sa, mm ± standard deviation, sample at 0.5 mg/mL, read-out: Inhibition zone (IZ)
Method in brief: as §2

[8] = tested on: Candida albicans; assay: Inhibition zone, agar plate diffusion; details: Ca, mm ± standard deviation, sample at 0.5 mg/mL, read-out: Inhibition zone (IZ)
Method in brief: as §2

[9] = tested on: Salmonella typhi; assay: Inhibition zone, agar plate diffusion; details: Salmonella enterica, St, mm ± standard deviation, sample at 0.5 mg/mL, read-out: Inhibition zone (IZ)
Method in brief: as §2

`COc1ccc(Nc2n[nH]c(N=Cc3ccc(N4CCCCC4)cc3)c2C(N)=O)cc1` [8a, 3-(p-Methoxyphenylamino)-5-(4-(piperidin-1-yl)benzylideneamino)-1H-pyrazole-4-carboxamide] was tested, and the “Mean Diameter of Inhibition Zone against MDRB” value [1] was 24 ± 0.12 mm, the MBC [2] was 3.9 µg/mL (≈ 9.32 µM) and the MIC [2] was 1.95 µg/mL (≈ 4.66 µM). It also gave an MBC [3] of 7.8 µg/mL (≈ 18.6 µM), an MIC [3] of 3.9 µg/mL (≈ 9.32 µM) and an MBC [4] of 3.9 µg/mL (≈ 9.32 µM). The MIC [4] was 1.95 µg/mL (≈ 4.66 µM), the “Mean Diameter of Inhibition Zone against MDRB” value [5] was 27 ± 0.54 mm and the zone of inhibition at 500 µg/mL [6] was 20 ± 0.82 mm. For the same compound, the zone of inhibition at 500 µg/mL [7] was 26 ± 0.14 mm, the zone of inhibition at 500 µg/mL [8] was 24 ± 0.3 mm and the zone of inhibition at 500 µg/mL [9] was 23 ± 0.11 mm.

`COc1ccc(Nc2n[nH]c(N=Cc3cc(OC)c(OC)c(OC)c3)c2C(=O)Nc2ccccc2)cc1` [9b, 3-(p-Methoxyphenylamino)-N-phenyl-5-(3,4,5-trimethoxybenzylideneamino)-1H-pyrazole-4-carboxamide] was tested, and the “Mean Diameter of Inhibition Zone against MDRB” value [1] was 25 ± 0.12 mm, the MBC [2] was 11.9 µg/mL (≈ 23.7 µM) and the MIC [2] was 6.25 µg/mL (≈ 12.5 µM). It also gave an MBC [3] of 9.88 µg/mL (≈ 19.7 µM), an MIC [3] of 5.2 µg/mL (≈ 10.4 µM) and an MBC [4] of 4.5 µg/mL (≈ 8.97 µM). For the same compound, the MIC [4] was 2.5 µg/mL (≈ 4.98 µM), the “Mean Diameter of Inhibition Zone against MDRB” value [5] was 24 ± 0.88 mm and the zone of inhibition at 500 µg/mL [6] was 17 ± 0.5 mm. It also gave a zone of inhibition at 500 µg/mL [7] of 21 ± 0.3 mm, a zone of inhibition at 500 µg/mL [8] of 19 ± 0.25 mm and a zone of inhibition at 500 µg/mL [9] of 23 ± 0.4 mm.
